# Laboratory results as given in ChEMBL document CHEMBL3885881, “DrugMatrix”.
# Species on record: Rattus norvegicus
# Test: DrugMatrix - Regimen: Daily Repeat
# Format: toxicity, organism-based, Sprague-Dawley
# Parameters: regimen Daily Repeat, gender Male, age 6-8 weeks
# Settings: in vivo, po, route oral GAVAGE, […]; for ABSOLUTE BASOPHIL / ABSOLUTE EOSINOPHIL / ABSOLUTE LYMPHOCYTE / ABSOLUTE MONOCYTE / ABSOLUTE SEGMENTED NEUTROPHIL / BASOPHIL / EOSINOPHIL / ERYTHROCYTE COUNT / HEMATOCRIT / HEMOGLOBIN / LEUKOCYTE COUNT / LYMPHOCYTE / MEAN CORPUSCULAR HEMOGLOBIN / MEAN CORPUSCULAR HEMOGLOBIN CONCENTRATION / MEAN CORPUSCULAR VOLUME / MONOCYTE / NEUTROPHIL / NUCLEATED RED BLOOD CELLS / PLATELET COUNT: tissue Blood
# [1] = 67 mg/kg, 72 h, dose level Low, time 3 day
# [2] = 67 mg/kg, 72 h, tissue Plasma, dose level Low, time 3 day
# [3] = 67 mg/kg, 120 h, dose level Low, time 5 day
# [4] = 67 mg/kg, 120 h, tissue Plasma, dose level Low, time 5 day
structure (smiles),measurement,setting,value
Cc1cccc(C)c1NC(=O)C(C)N (stereo unspecified) [TOCAINIDE],URIC ACID,"0 mg/kg, 120 h, tissue Plasma, dose level Control, time 5 day",0.7 mg/dL
same,ABSOLUTE BASOPHIL,[1],0 CELLS/uL
same,ABSOLUTE EOSINOPHIL,[1],83.33 CELLS/uL
same,ABSOLUTE LYMPHOCYTE,[1],10800 CELLS/uL
same,ABSOLUTE MONOCYTE,[1],251.33 CELLS/uL
same,ABSOLUTE SEGMENTED NEUTROPHIL,[1],1265.33 CELLS/uL
same,BASOPHIL,[1],0%
same,EOSINOPHIL,[1],0.67%
same,ERYTHROCYTE COUNT,[1],5.15 x10E6/uL
same,HEMATOCRIT,[1],32.47%
same,HEMOGLOBIN,[1],12.83 G/DL
same,LEUKOCYTE COUNT,[1],12.4 x10E3/uL
same,LYMPHOCYTE,[1],86.67%
same,MEAN CORPUSCULAR HEMOGLOBIN,[1],24.97 pg
same,MEAN CORPUSCULAR HEMOGLOBIN CONCENTRATION,[1],39.5 G/DL
same,MEAN CORPUSCULAR VOLUME,[1],63.07 fL
same,MONOCYTE,[1],2.33%
same,NEUTROPHIL,[1],10.33%
same,NUCLEATED RED BLOOD CELLS,[1],0 /100WBC
same,PLATELET COUNT,[1],980 x10E3/uL
same,ALANINE AMINOTRANSFERASE,[2],64 u/L
same,ALBUMIN,[2],3.83 G/DL
same,ALKALINE PHOSPHATASE,[2],379.67 u/L
same,ASPARTATE AMINOTRANSFERASE,[2],79.67 u/L
same,BLOOD UREA NITROGEN,[2],12.33 mg/dL
same,CARBON DIOXIDE,[2],26 mmol/L
same,CHLORIDE,[2],101 MEQ/L
same,CHOLESTEROL,[2],69.33 mg/dL
same,CREATINE PHOSPHOKINASE,[2],212.67 u/L
same,CREATININE,[2],0.29 mg/dL
same,GLUCOSE,[2],163 mg/dL
same,LACTATE DEHYDROGENASE,[2],145.67 u/L
same,LIPASE,[2],16 u/L
same,PHOSPHORUS,[2],10.33 mg/dL
same,POTASSIUM,[2],5.62 MEQ/L
same,SODIUM,[2],142.37 MEQ/L
same,TOTAL BILIRUBIN,[2],0.2 mg/dL
same,TOTAL PROTEIN,[2],5.4 G/DL
same,URIC ACID,[2],0.83 mg/dL
same,ABSOLUTE BASOPHIL,[3],0 CELLS/uL
same,ABSOLUTE EOSINOPHIL,[3],0 CELLS/uL
same,ABSOLUTE LYMPHOCYTE,[3],9456 CELLS/uL
same,ABSOLUTE MONOCYTE,[3],276.33 CELLS/uL
same,ABSOLUTE SEGMENTED NEUTROPHIL,[3],701 CELLS/uL
same,BASOPHIL,[3],0%
same,EOSINOPHIL,[3],0%
same,ERYTHROCYTE COUNT,[3],5.11 x10E6/uL
same,HEMATOCRIT,[3],34.43%
same,HEMOGLOBIN,[3],13.2 G/DL
same,LEUKOCYTE COUNT,[3],10.43 x10E3/uL
same,LYMPHOCYTE,[3],90.67%
same,MEAN CORPUSCULAR HEMOGLOBIN,[3],25.9 pg
same,MEAN CORPUSCULAR HEMOGLOBIN CONCENTRATION,[3],38.37 G/DL
same,MEAN CORPUSCULAR VOLUME,[3],67.47 fL
same,MONOCYTE,[3],2.67%
same,NEUTROPHIL,[3],6.67%
same,NUCLEATED RED BLOOD CELLS,[3],0 /100WBC
same,PLATELET COUNT,[3],1124 x10E3/uL
same,ALANINE AMINOTRANSFERASE,[4],58.33 u/L
same,ALBUMIN,[4],4.1 G/DL
same,ALKALINE PHOSPHATASE,[4],361 u/L
same,ASPARTATE AMINOTRANSFERASE,[4],79.67 u/L
same,BLOOD UREA NITROGEN,[4],10.67 mg/dL
same,CARBON DIOXIDE,[4],30.67 mmol/L
same,CHLORIDE,[4],95 MEQ/L
same,CHOLESTEROL,[4],65.67 mg/dL
same,CREATININE,[4],0.16 mg/dL
same,GLUCOSE,[4],174.33 mg/dL
same,LACTATE DEHYDROGENASE,[4],154.67 u/L
same,LIPASE,[4],9.67 u/L
same,PHOSPHORUS,[4],10.87 mg/dL
same,POTASSIUM,[4],5.33 MEQ/L
same,SODIUM,[4],137.97 MEQ/L
same,TOTAL BILIRUBIN,[4],0.17 mg/dL
same,TOTAL PROTEIN,[4],5.97 G/DL
same,URIC ACID,[4],0.7 mg/dL
